Read-outs that look alike come from different tables or passages of the source.
Legend:
DNA-PK = target: T1, DNA-PK (Homo sapiens, UniProt P78527); assay: DNA-PK Assay for Biochemical Enzymatic Inhibition (ADP Glo Kinase assay); details: DNA-PK enzyme, Table 1
T1 construct: purchased Invitrogen PR9107A
Protocol: A biochemical assay was performed to identify IC50 values against DNA-PK activity in a two-step reaction with a kinase reaction followed by ADP Glo™ Kinase assay Kit (Promega V9102).
Three-fold serial dilutions of compounds in DMSO were prepared in kinase assay buffer (50 mM HEPES pH 7.5, 20 mM MgCl2, 100 mM KCl, 50 μM DTT, 10 μg/ml calf thymus DNA, 0.01% Tween 20). Kinase assay buffer was used to prepare compound treatments to 0.02% DMSO (dimethyl sulphoxide) content. DMSO controls were prepared to produce a maximum and minimum luminescence signal for normalization. Substrate (Anaspec, AS-60210-5) and ATP (Promega V9102) and ATP mix was prepared by dilution in kinase assay buffer for 434.4 μM and 64.4 μM final assay concentrations, respectively. Compounds and control were added to 25 ng DNA-PK enzyme (Invitrogen, PR9107A) diluted in kinase buffer in assay plate (Corning 267459) and incubated for 15 minutes at room temperature prior to addition of substrate and ATP mix.
Throughout the assay, each time a reagent was added to the microplate, it was centrifuged for 1 minute at 1300 rcf. All reagents were added, and incubations carried out at room temperature. The reaction was then incubated for 60 minutes. ADP-ATP standards at 0, 4, 10, 40, 80, and 100% ADP (prepared as specified in the ADP Glo™ Kinase assay kit) were also added to the microplate at a volume equal to the total kinase reaction. The ADP Glo™ Kinase Assay kit was then used to quantify DNA-PK activity: following the 60-minute incubation, a 1:1 volume of ADP Glo reagent was added to all wells, then following a further 45-minute incubation, a 1:1 volume of Kinase Detection Reagent was added to all wells. After this two-step assay, plates were incubated in a Synergy-Neo2 plate reader for 30 minutes with gentle shaking, followed by endpoint luminescent read Luminescence data was normalized by subtracting the background signal and expressing all background-adjusted values as a percentage of the average maximum signal. The data was then expressed as percent inhibition by subtracting from 100% (i.e. maximum luminescent signal will be 0% inhibition) and the resulting data plotted against ten concentration points on a logarithmic scale, using GraphPad Prism. Non-linear regression analysis was performed on each concentration response curve and the log [inhibitor] vs response—variable slope (four parameters) equation was selected to generate IC50 values.

[1] = target: T2, DNA-PK phosphorylation at Serine 2056 (Homo sapiens, UniProt P78527); assay: Cellular Assay for Inhibition of DNA-PK Phosphorylation at Serine 2056 in FaDu cells (sandwich ELISA, neocarzinostatin); assay type: cell-based; details: pSer2056 DNA-PK, neocarzinostatin 1 μg/mL, Table 1
T2 construct: FaDu cells were purchased from ATCC; host or cells: FaDu
In short: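 FaDu cells pre-treated with compound (0.3% DMSO) for 1 h, then neocarzinostatin 1 μg/mL final added for 2 h to induce DSBs. Protein-normalised lysates read by sandwich ELISA for total and pSer2056 DNA-PK; % inhibition normalised between DMSO and NCS controls, IC50 from variable-slope log(inhibitor) fit.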

[2] = test system: pDNA-PK induction in HCT116 tumour spheroids; assay: Multicellular tumour spheroid + radiation, pDNA-PK (ser2056) inhibition, immunohistochemical endpoint, HCT116; assay type: cell-based; details: Homo sapiens, 20 Gy, 20% O2
Protocol: Multicellular tumour spheroids determination of compound inhibition of pDNA-PK induction following radiation. Tumour spheroids were grown to approximately 0.5 mm in diameter and irradiated with 20 Gy in combination with inhibitor test compounds to determine their potency. Inhibitor concentration for 50% reduction in pDNA-PK induction (IC50) was determined via immunohistochemical staining in spheroid cryosections taken 2 hours following radiation.
(§1) Spheroid+radiation pDNA-PK. Radiation: 20 Gy. Drug: serial dilution 5 or 10 μM down to 3.5 nM (11 wells). Spheroids: 3-6 spheroids per well (300-500 μm diameter). 20% 02 and 5% CO2. 96 well plate format.
Protocol: pre-incubate 1 hours with drug, irradiate with 20 Gy, post-incubate 2 hours with drug, freeze and cryosection ×3 replicates.
Endpoint: fluorescent immunostin pDNA-PK ser2056 and image on microscope.
Analysis: determine EC50 concentration that decreases pDNA-PK induction by 50% after radiation.
Multicellular tumour spheroids determination of compound inhibition of pDNA-PK induction following radiation. Tumour spheroids were grown to approximately 0.5 mm in diameter and irradiated with 20 Gy in combination with inhibitor test compounds to determine their potency. Inhibitor concentration for 50% reduction in pDNA-PK induction (IC50) was determined via immunohistochemical staining in spheroid cryosections taken 2 hours following radiation. For cell survival endpoint 8 Gy radiation was used and 3 hours following radiation spheroids were dissociated, counted and plated for colony forming endpoint.
as §1, with “format. Endpoint: fluorescent immunostain pDNA-PK ser2056 and image on microscope. Analysis: determine EC50 concentrations that decreases pDNA-PK induction by 50% after irradiation.” for “format.”
Multicellular tumour spheroids were used to determine potency of test compounds in a 3D tissue environment using inhibition of pDNA-PK induction following radiation or cell survival as the endpoint. For the pDNA-PK endpoint HCT116 or FaDU tumour spheroids were grown to approximately 0.5 mm in diameter and irradiated with 20 Gy in combination with inhibitor test compounds to determine their potency. Experiments were carried out in 96 well plates containing 0.7 mls of MEM media containing 10% FBS and 10 mM glucose under 20% O2 & 5% CO2 at 37° C. Following dilution of compounds 1:1000 from DMSO stocks, compounds were serially diluted from 10 μM down to 3.5 nM and 5-10 spheroids added. 96 well plates were constantly stirred to avoid spheroids settling during the course of the experiment. The inhibitor concentration for 50% reduction in pDNA-PK induction (EC50) was determined via immunohistochemical staining in spheroid cryosections taken 2 hours following radiation using anti-pDNA-PK (ser 2056) and fixed immediately in formalin following sectioning. For cell survival endpoint 8 Gy radiation was used and, 3 hours following radiation, spheroids were dissociated, counted and plated for colony forming endpoint. Data presented in the table compound potency as EC50 [μM].

[3] = HCT-116, 2 hours following radiation, Example 9 Study 2, read-out: Spheroid Cell line: HCT116 Immunohistochemical endpoint pDNA-PK inhibition EC50
[4] = HCT-116, Spheroid, Cell Line: HCT115 (so in the source), 2 hours following radiation, Example 7, read-out: EC50, Immunohistochemical endpoint, pDNA-PK inhibition
[5] = HCT-116, 2 h, spheroids, Example 8, read-out: Cell line: HCT116 Immunohistochemical endpoint pDNA-PK inhibition EC50

| SMILES | IC50 (DNA-PK) [µM] | IC50 [1] [µM] | EC50 [2, 3] [µM] | EC50 [2, 4] [µM] | EC50 [2, 5] [µM] |
| --- | --- | --- | --- | --- | --- |
| O=C(COc1cnc(N[C@H]2CC[C@@H](Oc3nc(N4CCOCC4)cc4ncccc34)CC2)nc1)N1CC(O)C1 [Compound 77, 1-(3-Hydroxyazetidin-1-yl)-2-((2-(((1s,4s)-4-((7-morpholino-1,6-naphthyridin-5-yl)oxy)cyclohexyl)amino)pyrimidin-5-yl)oxy)ethan-1-one] | < 0.0005 | 0.1 to 1 | 0.5 to 1 | 0.5 to 1 |  |
| CN(C)CCOc1cnc(C(=O)N[C@H]2CC[C@@H](Oc3nc(N4CCOCC4)cc4ncccc34)CC2)nc1 [Compound 126, 5-(2-(dimethylamino)ethoxy)-N-((1s,4s)-4-((7-morpholino-1,6-naphthyridin-5-yl)oxy)cyclohexyl)pyrimidine-2-carboxamide] | 0.001 to 0.01 | 1 to 10 | 10 to 100 | 10 to 100 |  |
| O=S(=O)(Nc1cnc2cc(N3CCOCC3)nc(O[C@H]3CC[C@@H](Nc4ncccn4)CC3)c2c1)C1CCC1 [Compound 191, N-(7-morpholino-5-(((1s,4s)-4-(pyrimidin-2-ylamino)cyclohexyl)oxy)-1,6-naphthyridin-3-yl)cyclobutanesulfonamide] | 0.001 to 0.01 | 0.1 to 1 | 10 to 100 | 10 to 100 |  |
| c1ccc(CSc2cnc3cc(N4CCOCC4)nc(O[C@H]4CC[C@@H](Nc5ncccn5)CC4)c3c2)cc1 [Compound 200c, N-((1s,4s)-4-((3-(benzylthio)-7-morpholino-1,6-naphthyridin-5-yl)oxy)cyclohexyl)pyrimidin-2-amine] | 0.01 to 0.15 | 10 to 30 | 10 to 100 | 10 to 100 |  |
| O=C(O)COc1cnc(N[C@H]2CC[C@@H](Oc3nc(N4CCOCC4)cc4ncccc34)CC2)nc1 [Compound 59, 2-((2-(((1s,4s)-4-((7-Morpholino-1,6-naphthyridin-5-yl)oxy)cyclohexyl)amino)pyrimidin-5-yl)oxy)acetic acid] | < 0.0005 | 10 to 30 | 10 to 100 | 10 to 100 |  |
| c1cnc2cc(N3CCOCC3)nc(O[C@H]3CC[C@@H](Nc4ncc(OCc5ncco5)cn4)CC3)c2c1 [Compound 78, N-((1s,4s)-4-((7-Morpholino-1,6-naphthyridin-5-yl)oxy)cyclohexyl)-5-(oxazol-2-ylmethoxy)pyrimidin-2-amine] | 0.0005 to 0.001 | 0.1 to 1 | 1 to 10 | 1 to 10 |  |
| O=C(Nc1ccccn1)[C@H]1CC[C@@H](Oc2nc(N3CCOCC3)cc3ncccc23)CC1 [Compound 154c, (1S,4S)-4-((7-morpholino-1,6-naphthyridin-5-yl)oxy)-N-(pyridin-2-yl)cyclohexane-1-carboxamide] | 0.001 to 0.01 | 0.1 to 1 | 1 to 10 | 1 to 10 | 1 to 10 |

The next lines start with the values.

| IC50 (DNA-PK) [µM] | IC50 [1] [µM] | EC50 [2, 3] [µM] | EC50 [2, 4] [µM] | EC50 [2, 5] [µM] | SMILES |
| --- | --- | --- | --- | --- | --- |
| < 0.0005 | 10 to 30 | 10 to 100 | 10 to 100 |  | CN(C)C(=O)COc1cnc(N[C@H]2CC[C@@H](Oc3nc(N4CCOCC4)cc4ncc(C(=O)O)cc34)CC2)nc1 [Compound 180, 5-(((1s,4s)-4-((5-(2-(dimethylamino)-2-oxoethoxy)pyrimidin-2-yl)amino)cyclohexyl)oxy)-7-morpholino-1,6-naphthyridine-3-carboxylic acid] |
| 0.001 to 0.01 | 1 to 10 | 1 to 10 | 1 to 10 | 1 to 10 | COC(=O)c1cnc2cc(N3CCOCC3)nc(O[C@H]3CC[C@@H](n4ccnc4)CC3)c2c1 [Compound 164, methyl 5-(((1s,4s)-4-(1H-imidazol-1-yl)cyclohexyl)oxy)-7-morpholino-1,6-naphthyridine-3-carboxylate] |
| 0.001 to 0.01 | 0.1 to 1 | 1 to 10 | 1 to 10 |  | CSc1cnc2cc(N3CCOCC3)nc(O[C@H]3CC[C@@H](Nc4ncccn4)CC3)c2c1 [Compound 200d, N-((1s,4s)-4-((3-(methylthio)-7-morpholino-1,6-naphthyridin-5-yl)oxy)cyclohexyl)pyrimidin-2-amine] |
| < 0.0005 | 10 to 30 | 10 to 100 | 10 to 100 |  | O=C(O)COc1cnc(N[C@H]2CC[C@@H](Oc3nc(N4CCOCC4)cc4ncc(C(=O)O)cc34)CC2)nc1 [Compound 181, 5-(((1s,4s)-4-((5-(carboxymethoxy)pyrimidin-2-yl)amino)cyclohexyl)oxy)-7-morpholino-1,6-naphthyridine-3-carboxylic acid] |
| 0.001 to 0.01 | 0.1 to 1 | 10 to 100 | 10 to 100 | 10 to 100 | CN(C)C(=O)N[C@H]1CC[C@@H](Oc2nc(N3CCOCC3)cc3ncccc23)CC1 [Compound 153, 1,1-Dimethyl-3-((1s,4s)-4-((7-morpholino-1,6-naphthyridin-5-yl)oxy)cyclohexyl)urea] |
| 0.001 to 0.01 | 1 to 10 | 10 to 100 | 10 to 100 | 1 to 10 | CCOC(=O)c1cnc2cc(N3CCOCC3)nc(O[C@H]3CC[C@@H](Nc4ncc(OCC(=O)N(C)C)cn4)CC3)c2c1 [Compound 179, ethyl 5-(((1s,4s)-4-((5-(2-(dimethylamino)-2-oxoethoxy)pyrimidin-2-yl)amino)cyclohexyl)oxy)-7-morpholino-1,6-naphthyridine-3-carboxylate] |
| 0.001 to 0.01 | 10 to 30 | 10 to 100 | 10 to 100 | 10 to 100 | CCCS(=O)(=O)NC(=O)c1cnc2cc(N3CCOCC3)nc(O[C@H]3CC[C@@H](n4ccnc4)CC3)c2c1 [Compound 173, 5-(((1s,4s)-4-(1H-imidazol-1-yl)cyclohexyl)oxy)-7-morpholino-N-(propylsulfonyl)-1,6-naphthyridine-3-carboxamide] |
